Key:
[1] = Aqueous solubility of crystalline L-malate salt forms compared to free base amorphous form; type: physicochemical; conditions: crystalline L-malate salt compared to the free base amorphous form
[2] = biological target: T1, human recombinant ghrelin receptor (GHS-R1a) (Homo sapiens, UniProt Q92847); test: hGHS-R1a Ca assay (Fluo-4 calcium assay in CHO-K1 cells); type: cell-based; conditions: CHO-K1 cells expressing human GHS-R1a; agonist dose response up to 30 μM
T1 construct: host or cells: CHO-K1
Procedure: (§1) Chinese hamster ovary (CHO-K1) cells expressing human recombinant ghrelin receptor (GHS-R1a) were purchased from Euroscreen (ES-410-C) and propagated in UltraCHO medium containing glutamine and supplemented with 1% heat inactivated foetal calf serum (FCS), 100 U/ml penicillin, 100 mg/l streptomycin and 0.8 g/l geneticin. Cells were sub-cultured twice a week with a 1:10 dilution. For passaging, cells were washed with 1×DPBS without calcium and magnesium, trypsinised for 10 min with 0.05% Trypsin/EDTA and resuspended in cell culture medium.
Cells were diluted to achieve 1×10^6 cells/ml, seeded in 384-well black clear bottom CellBind plates at 25000 cells/well (25 ul) and incubated overnight at 37° C./5% CO2 Cells were expected to be 85-90% confluent on the day of assay (checked under the microscope) to ensure a high quality assay. Media was manually removed and 40 μl of loading solution containing probenecid and Fluo-4 no wash dye (a calcium indicator, Invitrogen F36206) were added to each well. After 30 min at 37° C. followed by another 30 min at RT, cpds were added to the wells. To generate a dose response up to 30 μM, 10 mM compound stocks in 100% (v/v) DMSO were firstly diluted in 50% (v/v) DMSO. Then, serial dilutions aimed at a full logarithmic dose responses (8 point) were performed in assay buffer [1×HBSS, 20 mM Hepes, 0.1% (w/v) BSA] to give 2.5% (v/v) DMSO and 5× final compound concentrations. The final assay DMSO concentration was 0.5% (v/v). After loading the cells with Fluo-4 containing solution, plates were read on a CellLux instrument (Perkin Elmer). A protocol set up to add 10 μl of 5× compound and to read the plate for 60 sec after adding the compound at 17th sec was used. Fluorescence excitation took place at 494 nm and emission at 516 nm. EC50 values of agonists were calculated by fitting the percent stimulation over background [(Max−Min)/Min] using the nonlinear logistic function of the Prism 5 software (GraphPad, USA).

[3] = biological target: T1, human recombinant ghrelin receptor (GHS-R1a); test: hGHS-R1a cAMP assay (HTRF cAMP dynamic 2 kit, CHO-hGHS-R1a cells); type: cell-based; conditions: 60 min incubation, dose response up to 30 μM
Procedure: as §1
The Homogeneous Time-Resolved Fluorescence (HTRF) cAMP dynamic 2 kit (Cisbio International, France) was used as follows. CHO-hGHS-R1a or CHO-rGHS-R1a cells were seeded in a volume of 25 μl culture media at 10,000 cells/well (400,000 cells/ml) in Greiner white 384-well high volume plates and incubated overnight (18-24 h) at 37° C./5% CO2. Then, media was removed and 6 μl assay buffer [HBSS, 10 mM Hepes, 0.2% (w/v) BSA, 1.7 mM IBMX, (pH7.4)] were added to the wells. To generate a dose response up to 30 μM, 10 mM compound stocks in 100% (v/v) DMSO were firstly diluted in 50% (v/v) DMSO followed by a further dilution into assay buffer. Then, 4 μl of 2.5× compound (dose response as 9 point log serial dilution in assay buffer from 30 μM as maximum concentration) were added to each well achieving a final DMSO assay concentration of 0.8% (v/v). 0.1 μM forskolin was added as positive control. After 30 min (rGHS-R1a cell line) or 60 min (hGHS-R1a cell line) incubation at 37° C./5% CO2, 5 μl of cAMP-d2 and 5 μl of anti-cAMP antibody-cryptate, (both made in lysis buffer), were added to the plate followed by 1 h incubation at RT. During this time, cAMP produced by the cells competed with cAMP-d2 for the anti-cAMP antibody-cryptate molecule. Then, the plate was read on the Pherastar instrument (BMG, Germany) at two different emission wavelengths (620 and 650 nm). Increasing levels of endogenous cAMP produced by cells could be followed by a decrease of FRET fluorescent signal and viceversa. Values represented by a change in arbitrary fluorescence ratios (665/620) were converted into cAMP concentrations by using a standard curve, the reagents for which were supplied with the kit. EC50 values of agonists were calculated using the nonlinear logistic function of the Prism 5 software (GraphPad, USA). Emax were expressed as relative values of the ghrelin response, which was defined as 100%.

T1 sequence (Q92847 whole entry): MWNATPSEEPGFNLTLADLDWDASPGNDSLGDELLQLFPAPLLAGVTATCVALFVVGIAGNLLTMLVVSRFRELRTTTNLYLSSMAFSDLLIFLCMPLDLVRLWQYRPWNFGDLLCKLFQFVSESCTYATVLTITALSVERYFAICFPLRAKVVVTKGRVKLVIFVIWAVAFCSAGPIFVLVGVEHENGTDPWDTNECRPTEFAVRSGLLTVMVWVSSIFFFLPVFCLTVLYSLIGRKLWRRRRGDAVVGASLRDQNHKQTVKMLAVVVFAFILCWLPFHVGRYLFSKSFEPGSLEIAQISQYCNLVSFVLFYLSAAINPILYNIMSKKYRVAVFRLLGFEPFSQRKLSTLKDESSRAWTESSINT

Compound | aqueous solubility [1] | EC50 [2] [µM] | EC50 [3] [µM]
CN1C[C@@H](c2ccccc2)[C@@]2(CCCN(C(=O)[C@@H](COCc3ccccc3)NC(=O)C(C)(C)N)C2)C1=O.O=C(O)C[C@H](O)C(=O)O [2-Amino-N-[(R)-1-benzyloxymethyl-2-((4S,5R)-2-methyl-1-oxo-4-phenyl-2,7-diaza-spiro[4.5]dec-7-yl)-2-oxo-ethyl]-2-methyl-propionamide L-malate salt] | increased aqueous solubility |  | 
CN1CC(c2ccccc2)C2(CCCN(C(=O)[C@@H](COCC3CCCCC3)NC(=O)C(C)(C)N)C2)C1=O (single isomer, unassigned) [Example 1.60] |  | 0.0003 | 0.047
CN1CC(c2ccccc2)C2(CCCN(C(=O)[C@@H](COCc3ccccc3)NC(=O)C(C)(N)C(F)(F)F)C2)C1=O (stereo partly drawn) [Example 1.73, 2-amino-N-((2R)-3-(benzyloxy)-1-(2-methyl-1-oxo-4-phenyl-2,7-diazaspiro[4.5]decan-7-yl)-1-oxopropan-2-yl)-3,3,3-trifluoro-2-methylpropanamide] |  | 3.32 | ≥ 30
CN1CC(c2ccccc2)C2(CCCN(C(=O)[C@@H](COCc3ccccc3)NC(=O)C(C)(C)N)C2)C1=O (single isomer, unassigned) [Example 1.20] |  | 0.0016 | 2.28
Cc1ccc(C2CN(C)C(=O)C23CCCN(C(=O)[C@@H](COCc2ccccc2)NC(=O)C(C)(C)N)C3)cc1 (single isomer, unassigned) [Example 1.53] |  | 0.00011 | 0.036
CNC(C)(C)C(=O)N[C@H](COCc1ccccc1)C(=O)N1CCCC2(C1)C(=O)N(C)CC2c1ccccc1 (single isomer, unassigned) [Example 1.17] |  | 0.001 | 0.082
CN1C(=O)C2(CCCN(C(=O)[C@@H](COCc3ccccc3)NC(=O)C(C)(C)N)C2)C1c1ccccc1 (single isomer, unassigned) [Example 2.0(ii)] |  | 0.0011 | 0.456
CC(C)(C)CN1CC(c2ccccc2)C2(CCCN(C(=O)[C@@H](COCc3ccccc3)NC(=O)C(C)(C)N)C2)C1=O (single isomer, unassigned) [Example 1.40] |  | 0.0007 | 0.034
CC(C)(N)C(=O)N[C@H](COCc1ccccc1)C(=O)N1CCCC2(C1)C(=O)NCC2c1ccccc1 (single isomer, unassigned) [Example 1.4] |  | 0.0002 | 0.051
Cc1ccc(C2CN(C)C(=O)C23CCCN(C(=O)[C@@H](COCc2ccccc2)NC(=O)C(C)(C)N)C3)cc1.O=C(O)C[C@H](O)C(=O)O (stereo partly drawn) [2-amino-N-((2R)-3-(benzyloxy)-1-(2-methyl-1-oxo-4-p-tolyl-2,7-diazaspiro[4.5]decan-7-yl)-1-oxopropan-2-yl)-2-methylpropanamide L-malate salt] | increased aqueous solubility |  | 

Other lines, results leading:

aqueous solubility [1] | EC50 [2] [µM] | EC50 [3] [µM] | Compound
increased aqueous solubility |  |  | CN1C[C@@H](c2ccc(F)cc2)[C@@]2(CCCN(C(=O)[C@@H](COCc3ccccc3)NC(=O)C(C)(C)N)C2)C1=O.O=C(O)C[C@H](O)C(=O)O [2-amino-N-((2R)-3-(benzyloxy)-1-((4S,5R)-4-(4-fluorophenyl)-2-methyl-1-oxo-2,7-diazaspiro[4.5]decan-7-yl)-1-oxopropan-2-yl)-2-methylpropanamide L-malate salt]
 | 0.0021 | 1.93 | CN1CC(c2ccccc2)C2(CCCN(C(=O)[C@@H](COCc3ccccc3)NC(=O)C(C)(C)N)C2)C1=O (single isomer, unassigned) [Example 1.21]
 | 0.0003 | 0.162 | CN1CC(c2ccc(Cl)cc2)C2(CCCN(C(=O)[C@@H](COCc3ccccc3)NC(=O)C(C)(C)N)C2)C1=O (single isomer, unassigned) [Example 1.8]
 | 0.0017 | 0.385 | CN1N=C(c2ccccc2)C2(CCCN(C(=O)[C@@H](COCc3ccccc3)NC(=O)C(C)(C)N)C2)C1=O (mixture of isomers) [Example 1.47, 2-Amino-N-[(R)-1-benzyloxymethyl-2-(3-methyl-4-oxo-1-phenyl-2,3,7-triaza-spiro[4.5]dec-1-en-7-yl)-2-oxo-ethyl]-2-methyl-propionamide]

Reference: US8546416B2, “3-spirocyclic piperidine derivatives as ghrelin receptor agonists” (Novartis AG, priority 2011, dated 2013)
